# According to patent publication US4302535A, “Assay for mutagenesis in heterozygous diploid human lymphoblasts” (Massachusetts Institute of Technology, priority 1979, dated 1981):
# Key:
# TK6 cells [1] = conditions: induced by BMS (3 mM, 2 hours), 5 μg/ml 6-thioguanine
# TK6 cell line = assay: Mutation assay employing TK6 cell line: induction of TFTdR-resistant mutants (Example 2, Table 1); format: cell-based, human
# Experimental: One cell line, TK6, isolated in Example 1, was maintained in spinner culture at 37° C. with a doubling time of approximately 18 hours. Approximately 10^7 cells (4×10^5 /ml) were treated with either BMS (1 mM) of ICR-191 (0.25 μg/ml and 0.50 μg/ml) for 24 hours. After treatment, the cells were centrifuged and resuspended in fresh medium at a concentration of 3×10^5 /ml. Dilutions to 3×10^5 /ml were made daily.
# At various times after treatment, duplicate aliquots of 4×10^6 cells were centrifuged and resuspended in 10 ml of RPMI containing 20% FCS, 100 μ/ml penicillin, and 0.25% agarose (plating agar). To determine the plating efficiency of the culture, a […] sample of the suspension containing 4000 cells was added to 5 ml of plating agar and layered over 5 ml prejelled layer of the same medium in a 100 mm petri dish. […] The suspension was then plated in two 5 ml aliquots, each layered over a prejelled layer of plating agar in a 100 mm petri dish (final TFTdR concentration=1 μg/ml). The plates were fed the following day with 3 ml of medium.
# The plates were counted after 7-10 days in a 37° C., 5% CO2, humidified incubator.
# [2] = test system: TK6 cells and trifluorothymidine-resistant mutants; assay: Reconstruction experiment: toxicity of BMS to TK6 and mutants (Example 7, FIG. 5); format: cell-based, human; conditions: 24 hours exposure; relative surviving fraction
# Experimental: TK6 cells were exposed to BMS for 24 hours. After treatment, the relative surviving fraction was determined by plating in micro wells.
# TK6 cells [3] = assay: Mutagenicity of polyaromatic hydrocarbons, trifluorothymidine resistance (Example 8, Table 4); conditions: conclusion from plots and tables
# Experimental: Three polyaromatic hydrocarbons derived from kerosine soot were examined for mutagenicity.
# Error bars are the standard deviation of the mean.
# For perylene, TK6 cells were treated in duplicate with perylene for 3 hours in the presence of 5% (v/v) aroclor-induced rat liver post-mitochondrial supernatant.
# [4] = test system: trifluorothymidine-resistant TK6 mutant clones; assay: Plating efficiency of induced mutants in trifluorothymidine (Example 6, Table 3); format: cell-based, human
# From the text: The effect of dead TK6 cells on the expression of mutants growing in microtiter plates was also studied.
# TK6 cells [5] = assay: Optimization of selective agent concentration (Example 6, FIG. 4); format: cell-based, human; conditions: 0.33 μg/ml through 10 μg/ml; microtiter plates, two weeks
# From the text: FIG. 4 is a plot of the data obtained wherein each point is the average of two independent platings.
# [6] = test system: trifluorothymidine-resistant TK6 mutant clones and TK6; assay: Growth of trifluorothymidine-resistant mutants in various media (Example 4, Table 2); format: cell-based, human; parameters: key to T2 - F3 TdR (doubling time): NG means no growth was observed in 3 days; conditions: F3 TdR 1.0 μg/ml
# Experimental: Growth experiments were performed approximately three weeks later, in 25 cm^2 […] total volume. […] RPMI is normal medium with 15% fetal calf serum. […] CHAT contained 1×10^-5 M cytidine, 2×10^-4 M hypoxanthine, 2×10^-7 M aminopterin, and 1.75×10^-5 M thymidine.
# [7] = 1 mM × 24 Hrs, day 1 post-treatment
# [8] = 1 mM × 24 Hrs, day 3 post-treatment
# [9] = 1 mM × 24 Hrs, day 5 post-treatment
# [10] = 0.25 μg/ml × 24 Hrs, day 0 post-treatment
# [11] = 0.25 μg/ml × 24 Hrs, day 2 post-treatment
# [12] = 0.25 μg/ml × 24 Hrs, day 4 post-treatment
# [13] = 0.5 μg/ml × 24 Hrs, day 0 post-treatment
# [14] = 0.5 μg/ml × 24 Hrs, day 2 post-treatment
# [15] = 0.5 μg/ml × 24 Hrs, day 4 post-treatment
smiles,measurement,setting,value
Nc1nc2nc[nH]c2c(=S)[nH]1 [6-thioguanine],phenotypic expression time of 6-thioguanine resistance,TK6 cells [1],5 to 6 days
"CCCCOS(C)(=O)=O [BMS, butylmethane sulfonate]",Observed Mutants per 4 × 10^6 Cells,TK6 cell line; [7],132
same,Plating Efficiency,TK6 cell line; [7],0.094
same,Observed Mutants per 4 × 10^6 Cells,TK6 cell line; [8],275
same,Plating Efficiency,TK6 cell line; [8],0.15
same,Observed Mutants per 4 × 10^6 Cells,TK6 cell line; [9],387
same,Plating Efficiency,TK6 cell line; [9],0.23
same,toxicity to TK6 and a mixture of mutants or a single mutant clone,[2],equally toxic
COc1ccc2nc3cc(Cl)ccc3c(NCCCNCCCl)c2c1 [ICR-191],Observed Mutants per 4 × 10^6 Cells,TK6 cell line; [10],26
same,Plating Efficiency,TK6 cell line; [10],0.25
same,Observed Mutants per 4 × 10^6 Cells,TK6 cell line; [11],139
same,Plating Efficiency,TK6 cell line; [11],0.26
same,Observed Mutants per 4 × 10^6 Cells,TK6 cell line; [12],126
same,Plating Efficiency,TK6 cell line; [12],0.27
same,Observed Mutants per 4 × 10^6 Cells,TK6 cell line; [13],55
same,Plating Efficiency,TK6 cell line; [13],0.24
same,Observed Mutants per 4 × 10^6 Cells,TK6 cell line; [14],229
same,Plating Efficiency,TK6 cell line; [14],0.25
same,Observed Mutants per 4 × 10^6 Cells,TK6 cell line; [15],182
same,Plating Efficiency,TK6 cell line; [15],0.20
c1ccc2c(c1)-c1cccc3cccc-2c13 [fluoranthene],mutagenic activity for these human cells,TK6 cells [3],active as mutagens
c1cc2cccc3c4cccc5cccc(c(c1)c23)c54 [perylene],mutagenic activity for these human cells,TK6 cells [3],inactive
O=c1[nH]c(=O)n([C@H]2C[C@H](O)[C@@H](CO)O2)cc1C(F)(F)F [trifluorothymidine],PE in RPMI - F3 TdR,[4]; mutant BMS-2,0.09
same,"PE in RPMI-F3 TdR with 40,000 TK6/well",[4]; mutant BMS-2,0.09
same,PE in RPMI - F3 TdR,[4]; mutant BMS-3,0.21
same,"PE in RPMI-F3 TdR with 40,000 TK6/well",[4]; mutant BMS-3,0.17
same,PE in RPMI - F3 TdR,[4]; mutant BMS-4,0.11
same,"PE in RPMI-F3 TdR with 40,000 TK6/well",[4]; mutant BMS-4,0.15
same,PE in RPMI - F3 TdR,[4]; mutant BMS-5,0.29
same,"PE in RPMI-F3 TdR with 40,000 TK6/well",[4]; mutant BMS-5,0.31
same,PE in RPMI - F3 TdR,[4]; mutant ICR-1,0.21
same,"PE in RPMI-F3 TdR with 40,000 TK6/well",[4]; mutant ICR-1,0.21
same,PE in RPMI - F3 TdR,[4]; mutant ICR-2,0.09
same,"PE in RPMI-F3 TdR with 40,000 TK6/well",[4]; mutant ICR-2,0.10
same,observed mutant fraction of an untreated culture versus trifluorothymidine concentration,TK6 cells [5],no difference in the observed mutant fraction
same,T2 - F3 TdR (doubling time),[6]; TK6,NG
same,growth of mutants in F3 TdR,[6]; all mutants,all mutants grew well
same,T2 - F3 TdR (doubling time),[6]; mutant BMS-2,18.4
same,T2 - F3 TdR (doubling time),[6]; mutant BMS-3,19.2
same,T2 - F3 TdR (doubling time),[6]; mutant BMS-4,17.7
same,T2 - F3 TdR (doubling time),[6]; mutant BMS-5,19.7
same,T2 - F3 TdR (doubling time),[6]; mutant ICR-1,18.6
same,T2 - F3 TdR (doubling time),[6]; mutant ICR-2,21.2
